Source: patent US4015974A, “Amido phosphorothiolates” (priority 1972, dated 1977)

How the values were obtained:
Format in all cases: in vivo
[1] = test system: redroot pigweed (Amaranthus retroflexus); assay: Pre-emergence application, herbicidal effect on redroot pigweed (Table 1); design: key: 0: not damaged; 5: completely killed; conditions: 20 days after application, score 0-5
Source text: (§1) Seeds of barnyard grass (Echinochloa crus-galli) and large crabgrass (Digitaria sanguinalis) as representatives of grassy weeds and those of radish, redroot pigweed (Amaranthus retroflexus), common purslane (Portulaca oleracea) and common lambsquarter (Chenopodium album) as representatives of broad-leaved weeds were individually sowed in flower pots of about 10 cm. in diameter. After covering the seeds with soil, test compounds as shown in Table 1 were individually applied to the soil treatment. Thereafter the plants were grown in a green house and 20 days after application the herbicidal effects of the compounds were observed, the results of which are as shown in Table 1.
(§2) Herbicidal effects were evaluated by the numerals ranging from 0 (not damaged) to 5 (completely killed). All the test compounds were used in the form of wettable powder and diluted with water before application.

[2] = test system: common purslane (Portulaca oleracea); assay: Pre-emergence application, herbicidal effect on common purslane (Table 1); design: key: 0: not damaged; 5: completely killed; conditions: 20 days after application, score 0-5
Source text: as §1, §2

rice = assay: Water application, phytotoxicity on rice (Table 2); design: key: 0: no effect; 1: very slightly affected; 2: slightly affected; 3: moderately affected; 4: considerably affected; 5: completely killed; conditions: 25 days, score 0-5
Source text: (§3) Wagner pots of 14 cm. in diameter, which had been packed with 1.5 kg. of paddy field soil, were brought into the state of paddy fields. To the pots were transplanted rice seedlings at the 3-leave stage. Further, seeds of barnyard grass (Echinochloa crus-galli) were sowed in the pots and required amounts of test compounds were applied to the soil under water lodged condition. 25 days after application, the degrees of herbicidal activity and phytotoxity were investigated on above-mentioned plants which had been transplanted and sowed, and on broad-leaved weeds, e.g., monochoria (Monochoria viaginalis Presl.), false pimpernel (Linderna pyxidaria) and toothcup (Rotala indica Koehue), which had been spontaneously germinated. The test compounds were used in the form of wettable powder. The herbicidal effects and the phytotoxity were evaluated as follows by the numerals ranging from 0 to 5.

[3] = test system: common lambsquarter (Chenopodium album); assay: Pre-emergence application, herbicidal effect on common lambsquarter (Table 1); design: key: 0: not damaged; 5: completely killed; conditions: 20 days after application, score 0-5
Source text: as §1, §2

[4] = test system: barnyard grass (Echinochloa crus-galli); assay: Pre-emergence application, herbicidal effect on barnyard grass (Table 1); design: key: 0: not damaged; 5: completely killed; conditions: 20 days after application, score 0-5
Source text: as §1, §2

[5] = test system: large crabgrass (Digitaria sanguinalis); assay: Pre-emergence application, herbicidal effect on large crabgrass (Table 1); design: key: 0: not damaged; 5: completely killed; conditions: 20 days after application, score 0-5
Source text: as §1, §2

radish = assay: Pre-emergence application, herbicidal effect on radish (Table 1); design: key: 0: not damaged; 5: completely killed; conditions: 20 days after application, score 0-5
Source text: as §1, §2

[6] = test system: broad-leaved weeds, e.g., monochoria, false pimpernel and toothcup; assay: Water application, herbicidal effect on broad-leaved weeds (Table 2); design: key: 0: not damaged; 5: completely killed; conditions: 25 days, score 0-5
Source text: as §3

[7] = test system: barnyard grass (Echinochloa crus-galli); assay: Water application, herbicidal effect on barnyard grass (Table 2); design: key: 0: not damaged; 5: completely killed; conditions: 25 days, score 0-5
Source text: as §3

| SMILES | Herbicidal effect, redroot pigweed ([1]; 10 g./a.) | Herbicidal effect, redroot pigweed ([1]; 20 g./a.) | Herbicidal effect, redroot pigweed ([1]; 40 g./a.) | Herbicidal effect, common purslane ([2]; 10 g./a.) | Herbicidal effect, common purslane ([2]; 20 g./a.) | Herbicidal effect, common purslane ([2]; 40 g./a.) | Phytotoxicity on rice (rice; 10 g/a) | Phytotoxicity on rice (rice; 20 g/a) | Phytotoxicity on rice (rice; 40 g/a) | Herbicidal effect, common lambsquarter ([3]; 10 g./a.) | Herbicidal effect, common lambsquarter ([3]; 20 g./a.) | Herbicidal effect, common lambsquarter ([3]; 40 g./a.) | Herbicidal effect, barnyard grass ([4]; 10 g./a.) | Herbicidal effect, barnyard grass ([4]; 20 g./a.) | Herbicidal effect, barnyard grass ([4]; 40 g./a.) | Herbicidal effect, large crabgrass ([5]; 10 g./a.) | Herbicidal effects, broad-leaved weeds ([6]; 20 g/a) | Herbicidal effects, broad-leaved weeds ([6]; 40 g/a) | Herbicidal effects, barnyard grass ([7]; 20 g/a) | Herbicidal effects, barnyard grass ([7]; 40 g/a) | further results |
| --- | --- | --- | --- | --- | --- | --- | --- | --- | --- | --- | --- | --- | --- | --- | --- | --- | --- | --- | --- | --- | --- |
| CCOP(=O)(SCC)SCC(=O)N1CCCCC1C (stereo not drawn) [Compound 1] | 4 | 5 | 5 | 4 | 4 | 5 | 0 | 0 | 0 | 4 | 4 | 5 | 5 | 5 | 5 | 5 | 5 | 5 | 5 | 5 | Herbicidal effect, large crabgrass ([5]; 20 g./a.): 5; Herbicidal effect, large crabgrass ([5]; 40 g./a.): 5; Herbicidal effect, radish (radish; 10 g./a.): 0; Herbicidal effect, radish (radish; 20 g./a.): 0; Herbicidal effect, radish (radish; 40 g./a.): 0; Herbicidal effects, broad-leaved weeds ([6]; 10 g/a): 5; Herbicidal effects, barnyard grass ([7]; 10 g/a): 5 |
| CCCCOP(=O)(SCC)SCC(=O)N1CCCCC1C (stereo not drawn) [Compound 15] | 4 | 5 | 5 | 5 | 5 | 5 | 0 | 0 | 0 | 4 | 5 | 5 | 5 | 5 | 5 | 5 | 5 | 5 | 5 | 5 | Herbicidal effect, large crabgrass ([5]; 20 g./a.): 5; Herbicidal effect, large crabgrass ([5]; 40 g./a.): 5; Herbicidal effect, radish (radish; 10 g./a.): 0; Herbicidal effect, radish (radish; 20 g./a.): 0; Herbicidal effect, radish (radish; 40 g./a.): 0; Herbicidal effects, broad-leaved weeds ([6]; 10 g/a): 5; Herbicidal effects, barnyard grass ([7]; 10 g/a): 5 |
| CCCOP(=O)(SCCC)SCC(=O)N1CCCCC1C (stereo not drawn) [Compound 16, O,S-di-n-propyl-S-(2-methylpiperidinocarbamoylmethyl)phosphorodithiolate] | 4 | 4 | 4 | 4 | 4 | 4 | 0 | 0 | 0 | 4 | 4 | 5 | 4 | 4 | 5 | 5 | 5 | 5 | 5 | 5 | Herbicidal effect, large crabgrass ([5]; 20 g./a.): 5; Herbicidal effect, large crabgrass ([5]; 40 g./a.): 5; Herbicidal effect, radish (radish; 10 g./a.): 0; Herbicidal effect, radish (radish; 20 g./a.): 0; Herbicidal effect, radish (radish; 40 g./a.): 0; Herbicidal effects, broad-leaved weeds ([6]; 10 g/a): 5; Herbicidal effects, barnyard grass ([7]; 10 g/a): 5 |
| CCOP(=O)(SCC(=O)N1CCCC(C)C1)SC(C)C (stereo not drawn) [Compound 22] | 3 | 4 | 5 | 4 | 4 | 4 | 0 | 0 | 0 | 4 | 4 | 5 | 4 | 5 | 5 | 4 | 5 | 5 | 5 | 5 | Herbicidal effect, large crabgrass ([5]; 20 g./a.): 5; Herbicidal effect, large crabgrass ([5]; 40 g./a.): 5; Herbicidal effect, radish (radish; 10 g./a.): 0; Herbicidal effect, radish (radish; 20 g./a.): 0; Herbicidal effect, radish (radish; 40 g./a.): 0; Herbicidal effects, broad-leaved weeds ([6]; 10 g/a): 5; Herbicidal effects, barnyard grass ([7]; 10 g/a): 5 |
| CCOP(=O)(SCC(=O)N1CCC(C)CC1)SC(C)C (stereo not drawn) [Compound 26] | 4 | 4 | 4 | 4 | 4 | 4 | 0 | 0 | 0 | 3 | 4 | 4 | 4 | 5 | 5 | 4 | 5 | 5 | 5 | 5 | Herbicidal effect, large crabgrass ([5]; 20 g./a.): 5; Herbicidal effect, large crabgrass ([5]; 40 g./a.): 5; Herbicidal effect, radish (radish; 10 g./a.): 0; Herbicidal effect, radish (radish; 20 g./a.): 0; Herbicidal effect, radish (radish; 40 g./a.): 0; Herbicidal effects, broad-leaved weeds ([6]; 10 g/a): 5; Herbicidal effects, barnyard grass ([7]; 10 g/a): 5 |
| O=[N+]([O-])c1ccc(Oc2ccc(Cl)cc2Cl)cc1 [NIP, reference compound] |  |  |  |  |  |  |  | 2 | 4 |  |  |  |  |  |  |  | 5 | 5 | 5 | 5 |  |
